For series [1] the following is noted: renogrammatic analysis; imaging and dynamic studies of cerebrospinal fluid flow; cited from earlier work.
For series [2] the following is noted: cited from earlier work.
Series [3] is described as follows: Radioisotopic penetration across the nose-brain barrier (NBB) after intranasal spray, gamma camera ROI.
Description: (§1) A. The radiopharmaceutical was sprayed deep into the nose through the nostril as the examinee laid on the scintigraphic table with the head placed in vertical position. B. The resultant radioactivity residing on the olfactory mucosa. C. The region of interest (ROI) placed just beneath the nose-brain barrier on the (cathode Ray Tube) so as to record the penetrating radioactivity. D. Pharyngeal radioactivity escaped from the olfactory pit.
(§2) The mixture was sprayed into the depth of the nose. […] In order to protect the nasal mucosa, vinyl tubing was attached to the end of the nozzle of a sprayer. As the head of an examinee was positioned vertically, so as to allow the droplets to fall onto the olfactory mucosa, the examiner sprayed the mixture deep into one of the nostrils; and
(§3) (2) Assessing the radioisotopic penetration across the NBB The radioisotopic spray side of the head of an examinee was placed against the detector collimator of a gamma camera for 10 minutes. Radioisotopic penetration was defined as the amount of radioactivity recorded in the regions of interest (ROIs) placed over the intracranial space adjoing the cribrijon lamine. The change of the recorded radioactivity in this ROI was analyzed along with that in a remote control brain area.
(§4) Test were performed to determine the penetration potential of radio-pharmaceuticals of ^99m Tc-HMPAO and ^99m Tc-DTPA.
The conditions of series [4]: agent that circulates in the blood; cited from earlier work.
The conditions of series [5]: in vivo.
Description: as §1, §2, §3, §4

Structures are written as SMILES. “Also recorded” adds a separate entry of the source. Where two headings read alike, the source gives them in different places.

On to `O=C([O-])CN(CCN(CC(=O)[O-])CC(=O)[O-])CCN(CC(=O)[O-])CC(=O)[O-].[99Tc+4]` [^99m Tc-DTPA, 99mTc-diethylenetriaminepenta-acetic acid], for which, in series [1], the extracellular spreading entry is on record as “spreads extracellularly”. In addition, the water solubility result in series [2] is recorded as “water-soluble”. Besides, the “radioisotopic penetration across the NBB (radioactivity in juxta-cribriform brain ROI)” value in series [3] (healthy person, intranasal spray, 10 minutes gamma camera) was “the change was statistically insignificant; also recorded: increased but without any statistical significance”; in series [3] (person with anosmia, left nostril, 148 MBq per 0.2 ml puff (example preparation)) it was “significant increase in radioactivity in the juxta-cribriform lamional brain; also recorded: increased significantly”. Also, the “passage of the nose-brain barrier” value in series [3] (overall conclusion, human beings, olfactory pathology and/or healthy control) is “shown to pass the nose-brain barrier”. Also, the “time after which radioactivity in the juxta-cribriform brain increased significantly” value in series [3] (person with anosmia, left nostril) was found to be 5 min.
Regarding `C/C(=N\[O-])[C@@H](C)[N-]CC(C)(C)C[N-][C@H](C)/C(C)=N/O.[O]=[99Tc+3]` (racemic) [^99m Tc-HMPAO], the “passage through the blood-brain barrier” value in series [4] was “passes through the blood-brain barrier”. Besides, the “passage of the nose-brain barrier” value in series [5] was “shown not to pass the nose-brain barrier”.

The record behind these values is patent publication US6171575A, “Method of radioisotopic assessment of the integrity and function of the nose-brain barrier” (priority 1998, dated 2001).
